Assay results taken from paper PMC10584170, “Machine learning-based phenotypic imaging to characterise the targetable biology of Plasmodium falciparum male gametocytes for the development of transmission-blocking antimalarials” (PLOS Pathogens, 2023).

Experiments:
[1] = system: P. falciparum male gametocytes; assay: P. falciparum Dual Gamete Formation Assay (PfDGFA), male readout (exflagellation); format: cell-based, Plasmodium falciparum NF54; conditions: for % inhibition male (individual replicates) R1: replicate R1; for % inhibition male (individual replicates) R4: replicate R4; for Average inhibition male (%): average of replicates; for % inhibition male (individual replicates) R3: replicate R3; for Activity: hit = >50% inhibition in male or female readout in at least 3 replicates, 0 = no class assigned
How it was run: (§1)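 Read-outs are automated image counts of exflagellation centres (brightfield, 10 frames over 1 s) and Pfs25-positive female gametes (Cy3 fluorescence).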

[2] = system: P. falciparum female gametocytes; assay: P. falciparum Dual Gamete Formation Assay (PfDGFA), female readout (Pfs25-positive female gametes); format: cell-based, Plasmodium falciparum NF54; conditions: for % inhibition female (individual replicates) R1: replicate R1; for % inhibition female (individual replicates) R3: replicate R3; for % inhibition female (individual replicates) R4: replicate R4; for Average inhibition female (%): average of replicates
How it was run: as §1

[3] = PfDGFA at 2µM, 24h preincubation with gametocytes prior to induction of gametogenesis
[4] = PfDGFA at 2µM, 24h preincubation
[5] = 2µM, 24h preincubation with gametocytes prior to induction of gametogenesis
[6] = 2µM, 24h preincubation, hits selected on >50% inhibition in the male readout across replicates
[7] = 2µM, 24h preincubation, hits selected on >50% inhibition in the female readout across replicates
[8] = PfDGFA at 2µM, 24h preincubation with gametocytes
[9] = number of replicates with >50% inhibition in the male readout, 2µM
[10] = number of replicates with >50% inhibition in the female readout, 2µM
[11] = 2µM, 24h preincubation, number of replicates with >50% inhibition in the male readout
[12] = 2µM, 24h preincubation, number of replicates with >50% inhibition in the female readout

| SMILES | Average inhibition male (%) [1, 5] | % inhibition male (individual replicates) R1 [1, 5] | % inhibition male (individual replicates) R3 [1, 5] | % inhibition male (individual replicates) R4 [1, 5] | HitlevelM [1, 6] | Activity [1, 4] | Average inhibition female (%) [2, 5] | % inhibition female (individual replicates) R1 [2, 5] | % inhibition female (individual replicates) R3 [2, 5] | % inhibition female (individual replicates) R4 [2, 5] | HitlevelF [2, 7] | further results |
| --- | --- | --- | --- | --- | --- | --- | --- | --- | --- | --- | --- | --- |
| CNCCNCc1ccc(-c2cccc(-c3nc4cc(F)ccc4[nH]3)c2)cc1.O=C(O)C(F)(F)F [TCMDC-132836] | – | – | – | – | – | – | – | – | – | – | – | % inhibition male (individual replicates) R1 [1, 3]: -5.6%; % inhibition male (individual replicates) R4 [1, 3]: -19.2%; Average inhibition male (%) [1, 4]: -13.9%; % inhibition female (individual replicates) R1 [2, 3]: -0.65%; % inhibition female (individual replicates) R3 [2, 3]: 8.4%; % inhibition female (individual replicates) R4 [2, 3]: 2.6%; Average inhibition female (%) [2, 4]: 2.2% |
| O=C(O)C(F)(F)F.c1cc(CNCCN2CCNCC2)cc(-c2cccc(-c3nc4ccccc4[nH]3)c2)c1 [TCMDC-132859] | 12.0% | 10.9% | -9.7% | 24.9% | 0 | 0 | 17.2% | 18.5% | -13.9% | 47.2% | 0 | – |
| Fc1ccc2[nH]c(-c3cccc(-c4cccc(CNCCN5CCNCC5)c4)c3)nc2c1.O=C(O)C(F)(F)F [TCMDC-132860] | – | – | – | – | – | – | – | – | – | – | – | Average inhibition male (%) [1, 8]: 74.7%; % inhibition male (individual replicates) R1 [1, 8]: 80.2%; % inhibition male (individual replicates) R3 [1, 8]: 48.0%; % inhibition male (individual replicates) R4 [1, 8]: 89.6%; HitlevelM [1, 9]: 3; Average inhibition female (%) [2, 8]: -9.5%; % inhibition female (individual replicates) R1 [2, 8]: 8.6%; % inhibition female (individual replicates) R3 [2, 8]: -31.9%; % inhibition female (individual replicates) R4 [2, 8]: -13.7%; HitlevelF [2, 10]: 0 |
| O=C(O)C(F)(F)F.c1cc(CNCCN2CCNCC2)cc(-c2ccc(-c3nc4ccccc4[nH]3)cc2)c1 [TCMDC-132861] | – | – | – | – | – | – | – | – | – | – | – | % inhibition male (individual replicates) R1 [1, 3]: -18.7%; % inhibition male (individual replicates) R4 [1, 3]: -15.3%; Average inhibition male (%) [1, 4]: -11.2%; % inhibition female (individual replicates) R1 [2, 3]: -3.1%; % inhibition female (individual replicates) R3 [2, 3]: -9.9%; % inhibition female (individual replicates) R4 [2, 3]: 9.1%; Average inhibition female (%) [2, 4]: 1.2% |
| FC(F)(F)c1ccc2[nH]c(-c3ccc(-c4ccc(CNCCN5CCNCC5)cc4)s3)nc2c1.O=C(O)C(F)(F)F [TCMDC-132862] | 44.8% | 46.6% | 56.6% | 89.1% | – | – | 20.7% | 21.1% | 13.2% | 20.9% | – | HitlevelM [1, 11]: 2; HitlevelF [2, 12]: 0 |
| Fc1ccc2[nH]c(-c3cccc(-c4ccc(CNCCN5CCNCC5)cc4)c3)nc2c1.O=C(O)C(F)(F)F [TCMDC-132863] | 43.0% | 23.0% | 12.3% | 70.2% | 2 | 0 | 14.3% | 16.6% | -21.5% | 42.6% | 0 | – |
| Cc1cccc2nc(-c3cccc(-c4cccc(CNCCN5CCNCC5)c4)c3)[nH]c12.O=C(O)C(F)(F)F [TCMDC-132873] | 29.1% | 24.4% | 9.9% | 46.2% | 0 | 0 | 9.7% | 14.0% | 9.9% | 0.33% | 0 | – |
| CN(c1ncc(-c2cccc(CNCc3ccccc3O)c2)cn1)C1CCCCC1 [TCMDC-133137] | – | – | – | – | – | – | – | – | – | – | – | % inhibition male (individual replicates) R1 [1, 3]: -18.7%; % inhibition male (individual replicates) R4 [1, 3]: -25.6%; Average inhibition male (%) [1, 4]: -17.4%; % inhibition female (individual replicates) R1 [2, 3]: 2.5%; % inhibition female (individual replicates) R3 [2, 3]: -2.1%; % inhibition female (individual replicates) R4 [2, 3]: 17.4%; Average inhibition female (%) [2, 4]: 2.8% |
| Cl.c1cc(CNC2Cc3ccccc3C2)cc(-c2cnc(N3CCNCC3)nc2)c1 [TCMDC-133140] | 40.3% | 37.9% | 14.1% | 54.9% | – | – | 27.8% | 25.6% | 8.0% | 43.1% | – | HitlevelM [1, 11]: 2; HitlevelF [2, 12]: 0 |
| CN1CCCC1CCNCc1cccc(-c2cnc(N(C)C3CCCCC3)nc2)c1 (stereo not drawn) [TCMDC-133141] | – | – | – | – | – | – | – | – | – | – | – | Average inhibition male (%) [1, 8]: 74.0%; % inhibition male (individual replicates) R1 [1, 8]: 71.5%; % inhibition male (individual replicates) R3 [1, 8]: 68.9%; % inhibition male (individual replicates) R4 [1, 8]: 81.6%; HitlevelM [1, 9]: 4; Average inhibition female (%) [2, 8]: 34.0%; % inhibition female (individual replicates) R1 [2, 8]: 30.5%; % inhibition female (individual replicates) R3 [2, 8]: 11.1%; % inhibition female (individual replicates) R4 [2, 8]: 42.8%; HitlevelF [2, 10]: 1 |
| CCCN(CC1CC1)c1ncc(-c2cccc(CNCCC3CCCN3C)c2)cn1 (stereo not drawn) [TCMDC-133142] | 41.7% | 43.1% | 28.4% | 53.6% | 1 | 0 | 16.5% | 26.9% | 12.7% | -0.1% | 0 | – |
